The series in a line: Protective ability against MPP^+ induced apoptosis of neurons (WST-1 cell viability). The series is classed as cell-based. To be noted: human, MPP^+ 1 mM alone, read-out: Cell viability % compared to control. How it is done:
The following experiment was performed to evaluate the protective ability against apoptosis of neurons caused by MPP^+, a Parkinson's disease-inducing toxicity, in differentiated SH-Sy5y cells (brain neurons) for the Weissella cibaria strains shown in Table 2 above.
Thereafter, the existing medium was removed and replaced with 0.5% fetal bovine serum DMEM medium to which a sample was added at various concentrations. After 4 hours, the cells were treated with MPP^+ neurotoxicity at a concentration of 1 mM and cultured for an additional 44 hours. Thereafter, the medium was treated with the WST-1 solution and cultured for 2 hours to induce a reduction reaction, and then the absorbance was measured at 450 nm using an ELISA microplate reader.
(In general: Tetrazolium dyes change colour on reduction, which living cells bring about.)

Each structure is given as a SMILES string.

What is called viability is a read-out of living cells in per cent, often relative to untreated cells. In the case of `C[n+]1ccc(-c2ccccc2)cc1` [MPP^+, 1-methyl-4-phenylpyridinium iodide], the viability at 44 h, 1 mM came out at 53%.

The values are drawn from patent publication US20250032557A1, “Novel Strain Having Antagonism Against Proteus Mirabilis and Excellent Effect on Neurodegenerative Disease, and use Thereof” (METACEN THERAPEUTICS CO., LTD, priority 2021, published 2025).
